The record followed here is US11945796B2, “Substituted pyridine derivatives as SARM1 inhibitors” (Nura Bio, Inc., priority 2020, dated 2024).

The target in the first assay is T1, human SARM1(50-724) (Homo sapiens, UniProt Q6SZW1).
T1 construct: 40 nM human SARM1(50-724)
T1 sequence (Q6SZW1 50-724): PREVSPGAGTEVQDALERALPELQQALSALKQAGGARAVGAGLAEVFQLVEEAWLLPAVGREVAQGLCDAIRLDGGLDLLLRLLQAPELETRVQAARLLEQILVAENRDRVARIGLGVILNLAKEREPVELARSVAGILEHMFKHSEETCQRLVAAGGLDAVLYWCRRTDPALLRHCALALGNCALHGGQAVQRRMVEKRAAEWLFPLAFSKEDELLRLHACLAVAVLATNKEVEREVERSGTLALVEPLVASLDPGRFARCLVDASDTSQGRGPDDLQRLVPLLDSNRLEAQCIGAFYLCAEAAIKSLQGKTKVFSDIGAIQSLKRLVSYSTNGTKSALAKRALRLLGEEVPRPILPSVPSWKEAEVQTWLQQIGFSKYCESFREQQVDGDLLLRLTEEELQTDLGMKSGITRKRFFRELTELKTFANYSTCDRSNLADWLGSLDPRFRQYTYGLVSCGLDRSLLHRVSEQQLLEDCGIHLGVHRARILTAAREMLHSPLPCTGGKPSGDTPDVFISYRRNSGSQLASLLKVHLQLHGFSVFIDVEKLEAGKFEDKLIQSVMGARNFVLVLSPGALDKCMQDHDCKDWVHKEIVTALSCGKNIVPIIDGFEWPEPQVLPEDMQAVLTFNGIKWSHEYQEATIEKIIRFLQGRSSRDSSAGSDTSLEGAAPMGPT
The assay can be described thus: SARM1 NADase biochemical assay (HPLC peak areas of NAD and NAM). To be noted: 50 μM compound; NAD peak area; read-out: Avg NAD % inhibition at 50 μM. Here is the method:
The reaction was incubated at room temperature for 60 minutes and quenched with 20 μL of 0.4% formic acid. […] Total run time for each sample was 4 minutes. […] Samples were run at a flow rate of 0.8 mL/min at 55° C. Peak areas of NAD and NAM were determined using OpenLAB CDS (Chem Station edition) software. For dose-response, the compound was diluted serially 1:3 in DMSO and added to the reaction starting at a final compound concentration of 100 μM in 1% DMSO.
Usually inhibition stands for the percentage by which the read-out fell short of the control. For `CC(c1ccncc1)n1ccc(C=O)n1` (racemic) [Example 108, (rac)-1-[1-(Pyridin-4-yl)ethyl]-1H-pyrazole-3-carbaldehyde], the inhibition at 50 µM was 0 to 50%.

The assay is the same for the next values; noted with them: 50 μM compound; NAM peak area; read-out: Avg NAM % inhibition at 50 μM.
For `CC(c1ccncc1)n1ccc(C=O)n1` (racemic) [Example 108, (rac)-1-[1-(Pyridin-4-yl)ethyl]-1H-pyrazole-3-carbaldehyde], the inhibition at 50 µM fell in the range of 0 to 50%.

Still in this assay, the particulars now being: dose-response, 1:3 serial dilution from 100 μM; 40 nM SARM1, 0.3 mM NMN, 20 μM NAD, 60 min rt.
Broadly, the IC50 is the midpoint of a concentration-inhibition curve. A higher IC50 goes with lower potency. Take `CC(c1ccncc1)n1ccc(Nc2nccs2)n1` (racemic) [Example 1, (rac)-N-(1-(1-(Pyridin-4-yl)ethyl)-1H-pyrazol-3-yl)thiazol-2-amine]: the IC50 is under 1 µM.

The compound `CC(c1ccncc1)n1ccc(NCC#N)n1` (racemic) [Example 5, (rac)-2-((1-(1-(Pyridin-4-yl)ethyl)-1H-pyrazol-3-yl)amino)acetonitrile] showed an IC50 of 1 to 10 µM. In turn, `CC(C)Cn1ccc(C(C)c2ccncc2)n1` (racemic) [Example 11, (rac)-4-(1-(1-Isobutyl-1H-pyrazol-3-yl)ethyl)pyridine] displayed an IC50 of 1 to 10 µM. `Cc1cnccc1C(C)n1ccc(NCC(F)(F)F)n1` (racemic) [Example 14, (rac)-1-(1-(3-Methylpyridin-4-yl)ethyl)-N-(2,2,2-trifluoroethyl)-1H-pyrazol-3-amine] registered an IC50 of 1 to 10 µM.

Consider `CC(c1ccncc1)c1ccn(CC(F)F)n1` (racemic) [Example 18, (rac)-4-(1-(1-(2,2-Difluoroethyl)-1H-pyrazol-3-yl)ethyl)pyridine], for which the IC50 fell in the range of 1 to 10 µM. The compound `CC(c1ccncc1)n1ccc(NC(=O)c2ccc3c(c2)OCO3)n1` (racemic) [Example 19, (rac)-N-(1-(1-(Pyridin-4-yl)ethyl)-1H-pyrazol-3-yl)benzo[d][1,3]dioxole-5-carboxamide] registered an IC50 of 1 to 10 µM. Compound `[2H]C([2H])([2H])C(c1ccncc1)c1ccn(CC(F)(F)F)n1` (racemic) [Example 21, (rac)-4-(1-(1-(2,2,2-Trifluoroethyl)-1H-pyrazol-3-yl)ethyl-2,2,2-d3)pyridine] had an IC50 of 1 to 10 µM. The same measure, in the same setting: under `CC(c1ccncc1)c1nn(CC(F)(F)F)cc1F` (racemic) [Example 22, (rac)-4-(1-(4-Fluoro-1-(2,2,2-trifluoroethyl)-1H-pyrazol-3-yl)ethyl)pyridine] stands 1 to 10 µM.

Consider `CC(c1ccncc1)c1ccn(CC(F)(F)F)n1` (racemic) [Example 24, (rac)-4-(1-(1-(2,2,2-Trifluoroethyl)-1H-pyrazol-3-yl)ethyl)pyridine], for which the IC50 was under 1 µM. `[2H]C([2H])([2H])C(c1ccncc1)c1ccn(CC(F)F)n1` (racemic) [Example 25, (rac)-4-(1-(1-(2,2-Difluoroethyl)-1H-pyrazol-3-yl)ethyl-2,2,2-d3)pyridine] registered an IC50 of 1 to 10 µM. `FC(c1ccncc1)c1ccn(CC(F)(F)F)n1` (racemic) [Example 79, (rac)-4-(Fluoro(1-(2,2,2-trifluoroethyl)-1H-pyrazol-3-yl)methyl)pyridine] registered an IC50 of 10 to 100 µM. Consider `[2H]C([2H])([2H])C([2H])(c1ccncc1)c1ccn(CC(F)(F)F)n1` (racemic) [Example 80, (rac)-4-(1-(1-(2,2,2-Trifluoroethyl)-1H-pyrazol-3-yl)ethyl-1,2,2,2-d4)pyridine], for which the IC50 is under 1 µM. The same measure, in the same setting: to `FC(F)(F)Cn1ccc(C(Cl)c2ccncc2)n1` (racemic) [Example 81, (rac)-4-(Chloro(1-(2,2,2-trifluoroethyl)-1H-pyrazol-3-yl)methyl)pyridine] belongs 10 to 100 µM.

As to `[2H]C(C)(c1ccncc1)c1ccn(CC(F)(F)F)n1` (racemic) [Example 82, (rac)-4-(1-(1-(2,2,2-Trifluoroethyl)-1H-pyrazol-3-yl)ethyl-1-d)pyridine], the IC50 is under 1 µM.

Compound `CC(c1ccncc1)c1ccn(Cc2ccccc2)n1` (racemic) [Example 92, (rac)-4-(1-(1-Benzyl-1H-pyrazol-3-yl)ethyl)pyridine] came in with an IC50 of 10 to 100 µM. The same measure, in the same setting: to `CCC(c1ccncc1)n1ccc(NCC(F)(F)F)n1` (racemic) [Example 99, (rac)-1-(1-(Pyridin-4-yl)propyl)-N-(2,2,2-trifluoroethyl)-1H-pyrazol-3-amine] belongs 10 to 100 µM; to `CC(c1ccncc1)n1ccc(NC(C)C(F)(F)F)n1` (racemic) [Example 100, (rac)-1-(1-(Pyridin-4-yl)ethyl)-N-(1,1,1-trifluoropropan-2-yl)-1H-pyrazol-3-amine], 1 to 10 µM; to `CC(c1ccncc1)n1ccc(NCC(F)F)n1` (racemic) [Example 101, (rac)-N-(2,2-Difluoroethyl)-1-(1-(pyridin-4-yl)ethyl)-1H-pyrazol-3-amine], under 1 µM.

`Fc1cn(Cc2ccncc2)nc1CC(F)(F)F` (racemic) [Example 104, 4-{[4-Fluoro-3-(2,2,2-trifluoroethyl)-1H-pyrazol-1-yl]methyl}pyridine] yielded an IC50 of 1 to 10 µM. The same measure, in the same setting: under `CC(c1ccncc1)n1ccc(CC(F)F)n1` (racemic) [Example 107, (rac)-4-{1-[3-(2,2-Difluoroethyl)-1H-pyrazol-1-yl]ethyl}pyridine] stands 1 to 10 µM; under `CC(c1ccn(CC(F)(F)F)n1)c1ccncc1Cl` (racemic) [Example 112, (rac)-3-Chloro-4-(1-(1-(2,2,2-trifluoroethyl)-1H-pyrazol-3-yl)ethyl)pyridine], 1 to 10 µM. `CC(c1ccncc1)c1ccn(CC#N)n1` (single isomer, unassigned) [Example 12a] yielded an IC50 of 1 to 10 µM. `CC(c1ccncc1)c1ccn(CC#N)n1` (single isomer, unassigned) [Example 12b] registered an IC50 of under 1 µM. In the case of `C[C@H](c1ccn(CC(F)(F)F)n1)c1ccncc1Cl` (single isomer, unassigned) [Example 113a], the IC50 fell in the range of 1 to 10 µM.

The compound `C[C@@H](c1ccncc1)n1ccc(NCC(F)(F)F)n1` [Example 2, (S)-1-(1-(Pyridin-4-yl)ethyl)-N-(2,2,2-trifluoroethyl)-1H-pyrazol-3-amine] came in with an IC50 of under 1 µM. In the case of `FC(F)CNc1ccn(Cc2ccncc2)n1` [Example 3, N-(2,2-Difluoroethyl)-1-(pyridin-4-ylmethyl)-1H-pyrazol-3-amine], the IC50 lay within 1 to 10 µM. The same measure, in the same setting: under `c1cc(Cn2ccc(Nc3nccs3)n2)ccn1` [Example 4, N-(1-(Pyridin-4-ylmethyl)-1H-pyrazol-3-yl)thiazol-2-amine] stands 1 to 10 µM. The same measure, in the same setting: to `N#CCn1ccc(Cc2ccncc2)n1` [Example 9, 2-(3-(Pyridin-4-ylmethyl)-1H-pyrazol-1-yl)acetonitrile] belongs 1 to 10 µM; to `FC(F)Cn1ccc(Cc2ccncc2)n1` [Example 10, 4-((1-(2,2-Difluoroethyl)-1H-pyrazol-3-yl)methyl)pyridine], 1 to 10 µM. Compound `O=C(Nc1ccn(Cc2ccncc2)n1)C(C(F)(F)F)C(F)(F)F` [Example 15, 3,3,3-trifluoro-N-(1-(pyridin-4-ylmethyl)-1H-pyrazol-3-yl)-2-(trifluoromethyl)propanamide] displayed an IC50 of 1 to 10 µM.

Still in this assay, the particulars now being: read-out: Avg NAD % inhibition at 50 μM.
As to `CC(c1ccncc1)n1ccc(N(C)c2nccs2)n1` (racemic) [Example 91, (rac)-N-Methyl-N-(1-(1-(pyridin-4-yl)ethyl)-1H-pyrazol-3-yl)thiazol-2-amine], the inhibition at 50 µM was in the range of 0 to 50%.

`FC(c1ccncc1)n1ccc(CC(F)(F)F)n1` (racemic) [Example 105, (rac)-4-{Fluoro[3-(2,2,2-trifluoroethyl)-1H-pyrazol-1-yl]methyl}pyridine]: the inhibition at 50 µM was in the range of 0 to 50%.

Staying with this assay, now noted: read-out: Avg NAM % inhibition at 50 μM.
With `CC(c1ccncc1)n1ccc(N(C)c2nccs2)n1` (racemic) [Example 91, (rac)-N-Methyl-N-(1-(1-(pyridin-4-yl)ethyl)-1H-pyrazol-3-yl)thiazol-2-amine], the inhibition at 50 µM was 0 to 50%. Turning to `FC(c1ccncc1)n1ccc(CC(F)(F)F)n1` (racemic) [Example 105, (rac)-4-{Fluoro[3-(2,2,2-trifluoroethyl)-1H-pyrazol-1-yl]methyl}pyridine], the inhibition at 50 µM was 0 to 50%.
